In patent US9901624B2, “Methods and compositions for treating nephrogenic diabetes insipidus” (The United States of America as represented by the …, priority 2004, dated 2018):
Entries after “also recorded” stand apart in the source; their conditions may differ. Like-named read-outs stand apart in the source and are kept apart here.

Columns and labels:
P2Y2 receptor [1] = biological target: T1, P2Y2 receptor (Rattus norvegicus, UniProt P41232); details: reversible fashion; cited from earlier work
T1 construct: Freshly prepared IMCD-enriched fractions were incubated at 37.degree; C. under physiological conditions; from tissue; host or cells: rat kidney inner medulla / inner medullary collecting duct (IMCD) preparations

P2Y4 = P2Y4 (Homo sapiens, UniProt P51582); details: cDNA library source: Human chromosome X; cited from earlier work
P2Y11 = biological target: T2, P2Y11 (Homo sapiens, UniProt Q96G91); details: cDNA library source: Human placenta; cited from earlier work
T2 sequence (Q96G91 1-374): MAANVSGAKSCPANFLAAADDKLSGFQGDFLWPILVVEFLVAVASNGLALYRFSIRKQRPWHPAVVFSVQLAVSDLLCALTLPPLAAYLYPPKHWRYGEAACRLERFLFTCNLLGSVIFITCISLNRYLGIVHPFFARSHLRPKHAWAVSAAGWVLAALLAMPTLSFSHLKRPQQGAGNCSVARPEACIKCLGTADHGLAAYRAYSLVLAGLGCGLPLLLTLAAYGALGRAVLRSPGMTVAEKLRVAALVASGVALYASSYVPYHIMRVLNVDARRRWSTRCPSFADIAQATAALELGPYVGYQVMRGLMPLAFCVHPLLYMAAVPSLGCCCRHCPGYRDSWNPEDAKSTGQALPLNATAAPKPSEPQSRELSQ

P2Y1 [2] = biological target: P2Y1 (Gallus gallus, UniProt P34996); details: cDNA library source: Chick brain; cited from earlier work
P2Y1 [3] = biological target: P2Y1 (Meleagris gallopavo, UniProt P49652); details: cDNA library source: Turkey brain; cited from earlier work
P2Y1 [4] = biological target: P2Y1 (Rattus norvegicus, UniProt P49651); details: cited from earlier work
[5] = in vivo; cited from earlier work
[6] = test system: P2Y2 receptor-stimulated PGE2 release by IMCD; assay: Apyrase treatment in rats: basal and ATPγS-stimulated ex vivo PGE2 release by IMCD; set-up: species or system Sprague-Dawley rats
Method: (§1) It is non-toxic and safe to administer either intravenously or intraperitoneally. Two experiments were conducted. In one experiment Sprague-Dawley rats were divided into two groups (N=4 per group). One group was fed with regular rat chow, while the other was fed regular rat chow to which Lithium Chloride was added to a concentration of 40 mmol/kg wt of the food. Both groups were fed for 14 days without any other treatment. The second experiment was similar to the first one, except that potato apyrase (Sigma Chemical Co) was administered to both regular and lithium-added diet fed rats front day 7 to day 14 at a dose of 100 units/kg body wt. intraperitoneally, three times a day (˜8 hourly intervals). All rats had free access to drinking water. Twenty-four hour urine samples were collected from all rats on day 7 and 14 prior to euthanasia, and analyzed. All rats were euthanized on day 14, and IMCD suspensions were prepared. Basal and ATPγS-stimulated ex vivo PGE2 release by IMCD was determined as per the methods previously established.

[7] = Apyrase treatment day 7 to 14 in lithium-fed and regular diet rats: urine flow; assay type: in vivo, Sprague-Dawley rats
Method: as §1

[8] = test system: purinergic-driven PGE2 production by IMCD; details: normal rats chronically infused with dDAVP 20 ng/h; cited from earlier work
V2 receptor = details: chronic dDAVP infusion; cited from earlier work
P2Y2 receptor [9] = details: chronic dDAVP infusion; cited from earlier work
[10] = control rats fed with regular diet

T1 sequence (P41232 whole entry): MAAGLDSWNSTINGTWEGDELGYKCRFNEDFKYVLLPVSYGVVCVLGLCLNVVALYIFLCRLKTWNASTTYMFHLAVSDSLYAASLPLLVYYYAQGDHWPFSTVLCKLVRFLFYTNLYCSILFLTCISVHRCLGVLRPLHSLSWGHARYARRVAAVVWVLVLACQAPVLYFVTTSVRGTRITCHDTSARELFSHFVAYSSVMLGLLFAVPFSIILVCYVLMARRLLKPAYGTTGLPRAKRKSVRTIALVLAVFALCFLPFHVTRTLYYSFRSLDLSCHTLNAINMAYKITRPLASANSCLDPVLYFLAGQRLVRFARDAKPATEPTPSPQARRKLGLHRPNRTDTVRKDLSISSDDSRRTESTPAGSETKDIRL
P2Y1 (Rattus norvegicus, UniProt P49651), sequence (P49651 whole entry): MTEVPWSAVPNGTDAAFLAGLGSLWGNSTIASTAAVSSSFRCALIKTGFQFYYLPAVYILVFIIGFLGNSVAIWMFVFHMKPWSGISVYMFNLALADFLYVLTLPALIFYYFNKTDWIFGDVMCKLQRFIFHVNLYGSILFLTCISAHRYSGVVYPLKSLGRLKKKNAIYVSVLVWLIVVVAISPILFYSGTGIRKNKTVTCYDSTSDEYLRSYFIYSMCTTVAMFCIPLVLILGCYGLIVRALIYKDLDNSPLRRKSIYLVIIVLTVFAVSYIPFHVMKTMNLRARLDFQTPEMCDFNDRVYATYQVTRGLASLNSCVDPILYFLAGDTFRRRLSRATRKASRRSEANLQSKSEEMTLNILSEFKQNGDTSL
P2Y1 (Meleagris gallopavo, UniProt P49652), sequence (P49652 whole entry): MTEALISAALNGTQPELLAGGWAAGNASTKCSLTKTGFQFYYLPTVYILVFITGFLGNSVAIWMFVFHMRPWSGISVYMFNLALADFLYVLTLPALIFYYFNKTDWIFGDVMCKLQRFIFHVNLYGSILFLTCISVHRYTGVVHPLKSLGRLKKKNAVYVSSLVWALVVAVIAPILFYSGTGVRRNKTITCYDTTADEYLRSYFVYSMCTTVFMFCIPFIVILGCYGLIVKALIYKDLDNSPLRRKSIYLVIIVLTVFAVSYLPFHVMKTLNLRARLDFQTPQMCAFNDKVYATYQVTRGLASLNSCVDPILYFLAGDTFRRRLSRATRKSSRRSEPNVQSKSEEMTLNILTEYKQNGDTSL
P2Y1 (Gallus gallus, UniProt P34996), sequence (P34996 whole entry): as the sequence (P49652 whole entry) above, with S28T counted along it
P2Y4, sequence (P51582 whole entry): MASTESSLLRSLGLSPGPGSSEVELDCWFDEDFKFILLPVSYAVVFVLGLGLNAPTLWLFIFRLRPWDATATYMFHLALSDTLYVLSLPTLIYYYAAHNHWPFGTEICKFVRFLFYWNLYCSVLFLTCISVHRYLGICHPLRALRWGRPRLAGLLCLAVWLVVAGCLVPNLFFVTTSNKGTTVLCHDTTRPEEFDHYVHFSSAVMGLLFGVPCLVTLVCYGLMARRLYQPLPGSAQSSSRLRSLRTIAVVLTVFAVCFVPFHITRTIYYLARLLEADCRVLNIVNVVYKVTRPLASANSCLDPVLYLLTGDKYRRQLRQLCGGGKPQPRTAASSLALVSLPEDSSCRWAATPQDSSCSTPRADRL

Nc1ncnc2c1ncn2[C@@H]1O[C@H](COP(=O)(O)OP(=O)(O)O)[C@@H](O)[C@H]1O [ADP]
AVP-stimulated osmotic water permeability (Pf) (P2Y2 receptor [1]): not

Nc1ncnc2c1ncn2[C@@H]1O[C@H](COP(=O)(O)OP(=O)(O)OP(=O)(O)O)[C@@H](O)[C@H]1O [ATP]
Agonist activity (P2Y4): UTP > UDP (ATP inactive) | AVP-stimulated osmotic water permeability (Pf) (P2Y2 receptor [1]): decreased

O=c1ccn([C@@H]2O[C@H](COP(=O)(O)OP(=O)(O)O)[C@@H](O)[C@H]2O)c(=O)[nH]1 [UDP]
Agonist activity (P2Y11): (UTP, UDP inactive)

O=c1ccn([C@@H]2O[C@H](COP(=O)(O)OP(=O)(O)OP(=O)(O)O)[C@@H](O)[C@H]2O)c(=O)[nH]1 [UTP]
Agonist activity (P2Y1 [2]): inactive) | Agonist activity (P2Y11): (UTP, UDP inactive) | Agonist activity (P2Y1 [3]): inactive) | Agonist activity (P2Y1 [4]; cDNA library source: Rat ileal myocytes): ATP (UTP inactive) | AVP-stimulated osmotic water permeability (Pf) (P2Y2 receptor [1]): decreased

COc1ccc2c(c1)c(CC(=O)O)c(C)n2C(=O)c1ccc(Cl)cc1 [indomethacin]
polyuria of acquired NDI [5]: prevented the polyuria; also recorded: ameliorated

Nc1ncnc2c1ncn2[C@@H]1O[C@H](COP(=O)(O)CP(=O)(O)OP(=O)(O)O)[C@@H](O)[C@H]1O [α,β-meATP]
Agonist activity (P2Y1 [4]; cDNA library source: Rat insulinoma cells): (α,β-meATP inactive)

apyrase
P2Y2-mediated PGE2 release by IMCD [6, 10]: did not change | P2Y2 receptor-stimulated PGE2 release by IMCD ([6]; lithium-fed rats, compared to apyrase-untreated lithium-fed rats): significantly decreased | urine output [7, 10]: did not change | urine flow induced by lithium ([7]; lithium-fed rats, apyrase day 7 to 14, 100 units/kg intraperitoneally three times a day): prevented further increase in the urine flow

dDAVP
purinergic-driven PGE2 production by IMCD [8]: significantly decreased | expression of V2 receptor mRNA (V2 receptor): did not change significantly | mRNA expression of P2Y2 receptor, down-regulated to (P2Y2 receptor [9]): 54% | protein abundance of P2Y2 receptor, down-regulated to (P2Y2 receptor [9]): 49%
